Assay results from EP4653523A1, “CULTURE MEDIUM, PRODUCTION METHOD, AND CELL PREPARATION” (National University Corporation Kumamoto University, priority 2023, dated 2024).

Key:
EPCR High cell group [1] = test: Ex vivo culture of mouse EPCR High cell group for 4 days, flow cytometry and cell count; format: cell-based; conditions: cultured for 4 days, vs control
From the text: The expression of c-kit and EPCR in a hematopoietic stem cell fraction (lineage: CD150+, CD48-) isolated from a mouse by using flow cytometry was checked. Among the c-kit-positive and EPCR-positive cells, a cell group of the top 30% of the EPCR-positive cells was defined as an EPCR High cell group, and a cell group of the bottom 30% of the EPCR-positive cells was defined as an EPCR Low cell group (see FIG. 1). Each cell group was transplanted into a recipient mouse, and 20 weeks later, the proportion of cells derived from the transplanted stem cells was examined in the peripheral blood (PB). In addition, at the same time, the proportion of cells derived from the transplanted stem cells was examined in the hematopoietic stem cell fraction ([…]) in the bone marrow after 20 weeks of the transplantation. The experiment was carried out twice. […] The culture medium used for the ex vivo culture of the untreated hematopoietic stem cells isolated from the mouse is a culture medium obtained by adding, to the RPMI medium, L-Alanin (4.45mg/L), Zinc Sulfate Heptahydrate (0.432mg/L), Cupric Sulfate Pentahydrate (0.0013mg/L), Ferric Nitrate Nonahydrate (0.05mg/L), Ferrous Sulfate Heptahydrate (0.417mg/L), Linoleic acid (0.042mg/L), Hypoxanthine (2.1mg/L), Putrescine + 2HCL (0.081mg/L), Thioctic Acid (0.105mg/L), Thymidine (0.365mg/L), Sodium Pyruvate (55mg/L), HEPES (1mM), a penicillin-streptomycin mixed solution (Nacalai Tesque, Inc.: 26253-84) (1/100 capacity), Insulin-Transferrin-Selenium-Ethanolamine (Thermo Fisher Scientific, Inc.: 51500056) (1/100 capacity), and AlbuMAXtm I Lipid-Rich BSA (Thermo Fisher Scientific, Inc.: 11020021) (2%). As shown in FIG. 5(A), α-ketoglutaric acid (αKG), which is an intermediate metabolite of the TCA cycle, is also produced from glutamic acid or the like, and then it is supplied to the TCA cycle. In addition, in the production of α-ketoglutaric acid from glutamic acid, two pathways of a transaminase pathway and a glutamate dehydrogenase pathway are used (see FIG. 5(B)). Therefore, the proportion of EPCR High in hematopoietic stem cells was determined in a case where the EPCR High cell group was cultured for 4 days by adding each of an inhibitor […] (30 μM) of glutamate dehydrogenase and an inhibitor aminooxyacetic acid (AOA) (50 μM) of transaminase to the culture medium, and in a case where the content of […] in the culture medium, which is the source of glutamic acid synthesis, was set to 1/100 (0.02 mM) in FIG. 5(A) (Low Neu.). […] As a result, in a case of culturing in the presence of […], the number of cells having the EPCR High phenotype is increased by about 2 times in the culture for 4 days, as compared with the culture under the normal culture conditions. […]

[2] = tested on: Human CD34^+ bone marrow cells; test: Culture of human CD34+ bone marrow cells for 7 days, total cell count and flow cytometry; format: cell-based
Description: Human CD34^+ bone marrow cells (10,000 cells) were cultured for 7 days under normal culture conditions or in the presence of a glutamate dehydrogenase inhibitor R162 (30 µM), and then the total number of cells was analyzed. Then, the proportion of hematopoietic stem cells (lineage: CD34+ CD38- CD90+ cells) was analyzed using a flow cytometer, and from the results, the number of stem cells was estimated. FIG. 13 and FIG. 14 show the results. As shown in FIG. 14(A), it has been confirmed that the total number of cells is not changed by the presence of R162 as compared with the control, whereas as shown in FIG. 14(B), the ratio of stem cells after culturing is increased by the presence of R162.
The culture medium used for the ex vivo culture of human CD34+ bone marrow cells is a culture medium obtained by adding, to the RPMI medium, L-Alanin (4.45mg/L), Zinc Sulfate Heptahydrate (0.432mg/L), Cupric Sulfate Pentahydrate (0.0013mg/L), Ferric Nitrate Nonahydrate (0.05mg/L), Ferrous Sulfate Heptahydrate (0.417mg/L), Linoleic acid (0.042mg/L), Hypoxanthine (2.1mg/L), Putrescine + 2HCL (0.081mg/L), Thioctic Acid (0.105mg/L), Thymidine (0.365mg/L), Sodium Pyruvate (55mg/L), HEPES (1mM), a penicillin-streptomycin mixed solution (Nacalai Tesque, Inc.: 26253-84) (1/100 capacity), Insulin-Transferrin-Selenium-Ethanolamine (Thermo Fisher Scientific, Inc.: 51500056) (1/100 capacity), and AlbuMAXtm I Lipid-Rich BSA (Thermo Fisher Scientific, Inc.: 11020021) (2%).

EPCR High cell group [3] = test: Gene expression pattern analysis by RNA-sequence with principal component analysis; format: cell-based, mouse; conditions: 4d gEPCR-High (R162) compared with 4d gEPCR-High, cultured for 4 days
recipient mouse = test: Transplantation of cultured cell groups into recipient mouse, proportion of donor-derived cells; format: in vivo
Description: Mouse EPCR High cells were cultured for 4 days under the normal culture conditions or in the presence of R162, and 50 cells of each of an EPCR High cell group (Control) generated under the normal culture conditions, an EPCR Low cell group (Control), and an EPCR High cell group (R162) amplified in the presence of R162 were aliquoted and then transplanted into a recipient mouse. Then, after 4 weeks and 12 weeks, the proportion of cells derived from donor cells in the peripheral blood was examined.
Further, the EPCR High cells were cultured for 4 days under the normal culture conditions and cultured for 4 days in the presence of R162, and the EPCR High cell group generated under the normal culture conditions, the EPCR Low cell group, and the EPCR High cell group (R162) amplified in the presence of R162 were each transplanted into a recipient mouse. Then, 20 weeks later, the proportion of cells derived from donor cells was examined in the peripheral blood and the hematopoietic stem cell fraction in the bone marrow (L-ESLAM (BM)).

EPCR High cell group [4] = test: Chromatin status by open chromatin region analysis (ATAC-sequence) with principal component analysis; format: cell-based, mouse; conditions: 4d gEPCR-High (R162) compared with 4d gEPCR-High, cultured for 4 days
Description: In the same manner, the chromatin status of each cell group was analyzed by open chromatin region analysis (ATAC-sequence).

For `NOCC(=O)O` [AOA, aminooxyacetic acid], the number of cells (EPCR High cell group [1]; AOA 50 µM) was “significantly reduced as compared with the control”.

For `O=C(O[C@@H]1Cc2c(O)cc(O)cc2O[C@@H]1c1cc(O)c(O)c(O)c1)c1cc(O)c(O)c(O)c1` [EGCG, epigallo catechin-3-gallate], the “proportion of EPCR-positive cells (phenotype of EPCR High)” value (EPCR High cell group [1]; EGCG 50 µM in culture medium) was “phenotype of EPCR High is maintained”.

For `C=CCc1ccc2c(c1O)C(=O)c1ccccc1C2=O` [R162, 2-allyl-1-hydroxy-9,10-anthraquinone], the “total number of cells” value ([2]; R162 30 µM, 10,000 cells cultured for 7 days, vs control) was “not changed”, the “number of stem cells” value ([2]; R162 30 µM, cultured for 7 days, estimated from total cell number and proportion, vs normal culture conditions) was “the number of stem cells is increased” and the “ratio of stem cells after culturing (CD34+ CD38- CD90+ cells)” value ([2]; R162 30 µM, cultured for 7 days, vs control) was “increased”. For the same compound, the “proportion of EPCR High in hematopoietic stem cells” value (EPCR High cell group [1]; R162 30 µM in culture medium) was “phenotype of EPCR High is maintained”, the number of cells (EPCR High cell group [1]; R162 30 µM) was “about the same level as that of the control” and the gene expression pattern (EPCR High cell group [3]) was “extremely similar gene expression patterns”. The “proportion of cells derived from donor cells in the peripheral blood” value (recipient mouse; 50 cells of EPCR High cell group amplified 4 days in the presence of R162, transplanted, after 4 weeks and 12 weeks) was “high ability to reconstruct hematopoietic tissue, which is equivalent to the EPCR High cell group (Control)”, the “proportion of cells derived from donor cells in the peripheral blood and the hematopoietic stem cell fraction in the bone marrow (L-ESLAM (BM))” value (recipient mouse; EPCR High cell group amplified 4 days in the presence of R162, transplanted, 20 weeks later) was “high ability to maintain the reconstructed hematopoiesis for a longer period of time” and the “chromatin status (chromatin accessibility of cis-element regions)” value (EPCR High cell group [4]) was “extremely similar gene expression patterns even in the chromatin status”.
